What all share (type): cell-based
Experiment [1] has as its target T1, human Oxytocin (OTR) receptor (Homo sapiens, UniProt P30559).
T1 construct: expressed in transfected cells
T1 sequence (P30559 1-389): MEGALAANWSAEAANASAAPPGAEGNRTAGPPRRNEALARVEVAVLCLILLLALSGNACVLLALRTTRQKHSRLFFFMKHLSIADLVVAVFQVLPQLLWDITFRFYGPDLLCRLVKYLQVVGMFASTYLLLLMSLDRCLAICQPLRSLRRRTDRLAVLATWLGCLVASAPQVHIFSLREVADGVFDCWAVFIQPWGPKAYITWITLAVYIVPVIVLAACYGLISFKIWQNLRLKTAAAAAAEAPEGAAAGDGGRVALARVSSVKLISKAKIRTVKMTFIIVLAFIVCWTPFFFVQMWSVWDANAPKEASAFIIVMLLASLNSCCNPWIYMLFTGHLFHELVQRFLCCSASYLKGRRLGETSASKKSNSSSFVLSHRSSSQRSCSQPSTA
The experiment is described as follows: Calcium flux assay (FLIPR), agonist mode, CHO cells expressing human oxytocin receptor. To be noted: for EC50: CHO cells, human OTR, calcium flux FLIPR, read-out: hOT EC50; for Emax: CHO, maximum response normalized to endogenous full agonist = 100%, read-out: hOT efficacy (%). From the text: (§1) Chines Hamster Ovary (CHO) cells were transfected with expression plasmids encoding either the human V1a, the human Oxytocin (OTR) or the human V2 receptor, the later in combination with the chimeric Gqs5 G protein to redirect the signal to Calcium flux. Stable cells were cloned by limiting dilution to yield monoclonal cell lines expressing either human V1a, human V2+Gqs5 or human OTR receptors and selected based on functional responses detected on a fluorometric imaging plate reader (FLIPR) detecting Calcium flux in the cell after receptor activation. The stable cell lines were grown in F-12 K Nutrient Mixture (Kaighns Modification), containing 10% foetal bovine serum (FBS), 1% penicillin-streptomycin, 1% L-[…], 200 ug/ml Geneticin at 37° C. in a 10% CO2 incubator at 95% humidity.
(§2) On the afternoon before the assay, cells were plated at a density of 50,000 cells/well into black 96 well plates with clear bottoms to allow cell inspection and fluorescence measurements from the bottom of each well. The density of cells was sufficient to yield a confluent monolayer the next day. Hanks balanced salt solution, without phenol red, containing 20 mM HEPES (pH 7.3) and 2.5 mM probenecid (assay buffer) was prepared fresh for each experiment. Compound dilutions were made using a Beckman Biomek 2000 laboratory automation workstation, in assay buffer containing 1% DMSO. The dye-loading buffer consisted of a final concentration of 2 μM Fluo-4-AM (dissolved in DMSO and pluronic acid) in assay buffer. The existing culture media was removed from the wells and 100 μl of the dye-loading buffer was added to each well and incubated for approximately 60 min at 37° C. in a 5% CO2 incubator at 95% humidity. Once dye-loaded, the cells were washed thoroughly on an Embla cell washer with the assay buffer to remove any unincorporated dye. Exactly 100 μl assay buffer was left in each well.
(§3) Each 96 well plate containing dye-loaded cells was placed into the FLIPR machine and the laser intensity set to a suitable level to detect low basal fluorescence. To test compounds as agonists, 25 μl diluted compound was added to the plate 10 seconds into the fluorescent measurements and fluorescent response was recorded for 5 minutes. The fluorescence data was normalized to the endogenous full agonist dose-response set at 100% for the maximum response and 0% for the minimum. Each agonist concentration-response curve was constructed using a four parameter logistic equation with Microsoft Excel XLFit as follows: Y=Minimum+((Maximum−Minimum)/(1+10^(LogEC50-X)nH)), where y is the % normalized fluorescence, minimum is the minimum y, maximum is the maximum y, logEC50 is the log10 concentration which produces 50% of the maximum induced fluorescence, x is the log10 of the concentration of the agonist compound and H is the slope of the curve (the Hill Coefficient). The maximum value gives the efficacy of the agonist test compound in percentage. The concentration of agonist that produced a half-maximal response is represented by the EC50 value, the logarithm of which yielded the pEC50 value.
On the technique in general: Calcium flux is commonly read through the fluorescence of an indicator in the cells.

The target in experiment [2] is T2, human V1a receptor (Homo sapiens, UniProt P37288).
T2 construct: expressed in transfected cells
T2 sequence (P37288 whole entry): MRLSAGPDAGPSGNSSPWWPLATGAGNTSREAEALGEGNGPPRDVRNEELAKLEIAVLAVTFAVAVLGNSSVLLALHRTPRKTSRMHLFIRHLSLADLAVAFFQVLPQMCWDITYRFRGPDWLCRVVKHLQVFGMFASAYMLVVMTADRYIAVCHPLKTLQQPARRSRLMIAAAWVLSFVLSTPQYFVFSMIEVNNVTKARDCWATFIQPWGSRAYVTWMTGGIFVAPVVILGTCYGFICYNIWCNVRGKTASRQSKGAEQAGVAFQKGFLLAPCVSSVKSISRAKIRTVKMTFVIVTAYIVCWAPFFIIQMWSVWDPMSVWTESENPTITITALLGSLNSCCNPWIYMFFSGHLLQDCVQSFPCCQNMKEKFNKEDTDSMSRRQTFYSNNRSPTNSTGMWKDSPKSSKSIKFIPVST
Kind of experiment: Calcium flux assay (FLIPR), agonist mode, CHO cells expressing human V1a receptor. To be noted: read-out: hV1a EC50.
From the text: as §1, §2, §3

Experiment [3] concerns the target T3, human V2 receptor (Homo sapiens, UniProt P30518).
T3 construct: expressed in transfected cells
Kind of experiment: Calcium flux assay (FLIPR), agonist mode, CHO cells expressing human V2 receptor + Gqs5. To be noted: for EC50: CHO cells, human V2 + chimeric Gqs5, calcium flux FLIPR, read-out: hV2 EC50; for hV2 efficacy (%) / Emax: maximum response normalized to endogenous full agonist = 100%; for Emax: CHO, read-out: hV2 efficacy (%).
From the text: as §1, §2, §3

From patent US9957298B2, “Peptides as oxytocin agonists” (Hoffmann-La Roche Inc., priority 2014, dated 2018) come the findings set out here.

Molecules are shown by their SMILES. Starred links: 1 amine or outer side, 2 acyl side, 3 side chain; linkers in the order of their positions; H or OH if unused. Positions of bridges follow the written chain, without caps; N, C: chain ends. Non-standard residues stand in square brackets, D forms with d. Residues, ends and D or L forms follow the SMILES beside them. Cha = N[C@@H](CC1CCCCC1)C(=O)O; Chg = N[C@H](C(=O)O)C1CCCCC1; Phg = N[C@H](C(=O)O)c1ccccc1; Suc = O=C(CCC(=O)[*:2])[*:1]; hLeu = CC(C)CC[C@H](N)C(=O)O; NcPrGly = O=C(O)CNC1CC1; Nva = CCC[C@H](N)C(=O)O; Dap = NC[C@H](N)C(=O)O; Sar = CNCC(=O)O

T3 sequence (P30518 whole entry): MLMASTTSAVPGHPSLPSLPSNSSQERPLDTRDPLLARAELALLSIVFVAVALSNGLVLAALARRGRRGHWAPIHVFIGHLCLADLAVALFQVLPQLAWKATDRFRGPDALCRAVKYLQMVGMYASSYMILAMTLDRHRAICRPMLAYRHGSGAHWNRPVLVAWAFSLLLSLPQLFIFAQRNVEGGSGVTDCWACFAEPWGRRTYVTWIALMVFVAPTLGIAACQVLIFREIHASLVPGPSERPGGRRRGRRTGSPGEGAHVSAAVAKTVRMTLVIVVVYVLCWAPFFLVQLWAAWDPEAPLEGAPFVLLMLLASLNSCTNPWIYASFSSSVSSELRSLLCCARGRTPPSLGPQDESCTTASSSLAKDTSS

With `CC[C@H](C)[C@@H]1NC(=O)[C@H](Cc2ccc(O)cc2)NC(=O)CCC(=O)NC[C@@H](C(=O)N2CCC[C@H]2C(=O)N[C@H](C(=O)NCC(N)=O)c2ccccc2)NC(=O)[C@H](CC(N)=O)NC(=O)[C@H](CCC(N)=O)NC1=O` [Example 19] (YIQN[Dap]P[Phg]G-NH2; linker N-5 via Suc), the values for the EC50 in experiment [1], in experiment [2] and in experiment [3] were 0.4 nM, 470 nM and 59 nM, respectively. The Emax in experiment [1] is 114%. Moreover, the “hV2 efficacy (%)” value in experiment [3] is given as 114%.
For `CC[C@H](C)[C@@H]1NC(=O)[C@H](Cc2ccc(O)cc2)NC(=O)CCC(=O)NC[C@@H](C(=O)N2CCC[C@H]2C(=O)N[C@H](C(=O)NCC(N)=O)C2CCCCC2)NC(=O)[C@H](CC(N)=O)NC(=O)[C@H](CCC(N)=O)NC1=O` [Example 20] (YIQN[Dap]P[Chg]G-NH2; linker N-5 via Suc), in experiment [1], the EC50 (usually the concentration needed to bring the measured effect to its halfway point) stood at 0.9 nM and the Emax turned out to be 117%. The EC50 in experiment [2] came out at 562 nM. In addition, in experiment [3], the EC50 came to 174 nM and the “hV2 efficacy (%)” value was determined as 112%.
The like results for `CC[C@H](C)[C@@H]1NC(=O)[C@H](Cc2ccc(O)cc2)NC(=O)CCC(=O)NC[C@@H](C(=O)N2CCC[C@H]2C(=O)N[C@@H](CCC(C)C)C(=O)NCC(N)=O)NC(=O)[C@H](CC(N)=O)NC(=O)[C@H](CCC(N)=O)NC1=O` [Example 22] (YIQN[Dap]P[hLeu]G-NH2; linker N-5 via Suc) were, in that order, 0.8 nM, 109%, 391 nM, 176 nM and 106%.
For `CC[C@H](C)[C@@H]1NC(=O)[C@H](Cc2ccc(O)cc2)NC(=O)CCC(=O)NC[C@@H](C(=O)N(C)CC(=O)N[C@H](C(=O)NCC(N)=O)C2CCCCC2)NC(=O)[C@H](CC(N)=O)NC(=O)[C@H](CCC(N)=O)NC1=O` [Example 24] (YIQN[Dap][Sar][Chg]G-NH2; linker N-5 via Suc) the same measures were 0.5 nM, 104%, more than 27000 nM, 152 nM and 120%.
Turning to `CC[C@H](C)[C@@H]1NC(=O)[C@H](Cc2ccc(O)cc2)NC(=O)CCC(=O)NC[C@@H](C(=O)N(C)CC(=O)N[C@@H](CCC(C)C)C(=O)NCC(N)=O)NC(=O)[C@H](CC(N)=O)NC(=O)[C@H](CCC(N)=O)NC1=O` [Example 25] (YIQN[Dap][Sar][hLeu]G-NH2; linker N-5 via Suc), the EC50 was 0.8 nM in experiment [1], more than 27000 nM in experiment [2] and 213 nM in experiment [3]. In addition, the Emax in experiment [1] turned out to be 103%. Moreover, the “hV2 efficacy (%)” value in experiment [3] is reported as 118%.
With `CC[C@H](C)[C@@H]1NC(=O)[C@H](Cc2ccc(O)cc2)NC(=O)CCC(=O)NC[C@@H](C(=O)N(C)CC(=O)N[C@@H](CCSC)C(=O)NCC(N)=O)NC(=O)[C@H](CC(N)=O)NC(=O)[C@H](CCC(N)=O)NC1=O` [Example 26] (YIQN[Dap][Sar]MG-NH2; linker N-5 via Suc), the concentration for a half-maximal effect (EC50) in experiment [1] is 0.5 nM; in experiment [2], more than 27000 nM; in experiment [3], 281 nM. The Emax in experiment [1] amounted to 107%. Further, the “hV2 efficacy (%)” value in experiment [3] came to 119%.
For `CCC[C@H](NC(=O)CN(C)C(=O)[C@@H]1CNC(=O)CCC(=O)N[C@@H](Cc2ccc(O)cc2)C(=O)N[C@@H]([C@@H](C)CC)C(=O)N[C@@H](CCC(N)=O)C(=O)N[C@@H](CC(N)=O)C(=O)N1)C(=O)NCC(N)=O` [Example 27] (YIQN[Dap][Sar][Nva]G-NH2; linker N-5 via Suc) the same measures were 0.8 nM, more than 27000 nM, 282 nM, 107% and 114%.
As to `CC[C@@H](C)[C@@H](NC(=O)CN(C)C(=O)[C@@H]1CNC(=O)CCC(=O)N[C@@H](Cc2ccc(O)cc2)C(=O)N[C@@H]([C@@H](C)CC)C(=O)N[C@@H](CCC(N)=O)C(=O)N[C@@H](CC(N)=O)C(=O)N1)C(=O)NCC(N)=O` [Example 28] (YIQN[Dap][Sar][dI]G-NH2; linker N-5 via Suc), the results for the EC50 in experiment [1], in experiment [2] and in experiment [3] were 0.5 nM, more than 27000 nM and 1380 nM, respectively. Further, the Emax in experiment [1] was found to be 109%; in experiment [3] it was 119%.
Regarding `CC[C@H](C)[C@@H]1NC(=O)[C@H](Cc2ccc(O)cc2)NC(=O)CCC(=O)NC[C@@H](C(=O)N(C)CC(=O)N[C@@H](C(=O)NCC(N)=O)[C@H](C)O)NC(=O)[C@H](CC(N)=O)NC(=O)[C@H](CCC(N)=O)NC1=O` [Example 29] (YIQN[Dap][Sar][dT]G-NH2; linker N-5 via Suc), the EC50 in experiment [1] is 0.6 nM; in experiment [2] it was more than 27000 nM; in experiment [3] it was 2070 nM. Also, the figures for the Emax in experiment [1] and in experiment [3] were 109% and 113%, respectively.
In the case of `CC[C@H](C)[C@@H]1NC(=O)[C@H](Cc2ccc(O)cc2)NC(=O)CCC(=O)NC[C@@H](C(=O)N(C)CC(=O)N[C@@H](CC2CCCCC2)C(=O)NCC(N)=O)NC(=O)[C@H](CC(N)=O)NC(=O)[C@H](CCC(N)=O)NC1=O` [Example 31] (YIQN[Dap][Sar][Cha]G-NH2; linker N-5 via Suc), in experiment [1], the EC50 is 0.5 nM and the Emax is 107%. The EC50 in experiment [2] is more than 27000 nM. Also, in experiment [3], the EC50 worked out at 199 nM and the “hV2 efficacy (%)” value is 126%.
The like results for `CC[C@H](C)[C@@H]1NC(=O)[C@H](Cc2ccc(O)cc2)NC(=O)CCC(=O)NC[C@@H](C(=O)N(C)CC(=O)N[C@H](C(=O)NCC(N)=O)c2ccccc2)NC(=O)[C@H](CC(N)=O)NC(=O)[C@H](CCC(N)=O)NC1=O` [Example 37] (YIQN[Dap][Sar][Phg]G-NH2; linker N-5 via Suc) were, in that order, 0.2 nM, 112%, more than 27000 nM, 53 nM and 121%.
For `CC[C@H](C)[C@@H]1NC(=O)[C@H](Cc2ccc(O)cc2)NC(=O)CCC(=O)NC[C@@H](C(=O)N(CC(=O)N[C@@H](CC(C)C)C(=O)NCC(N)=O)C2CC2)NC(=O)[C@H](CC(N)=O)NC(=O)[C@H](CCC(N)=O)NC1=O` [Example 38] (YIQN[Dap][NcPrGly]LG-NH2; linker N-5 via Suc) the same measures were 0.38 nM, 126%, more than 27000 nM, 626 nM and 146%.
